Measured values published in patent US10131652B2, “Pyrimidinyloxy benzene derivatives as herbicides” (E. I. DU PONT DE NEMOURS AND COMPANY, priority 2014, dated 2018).

How the values were obtained:
Experiment in all cases: Test F pre-/postemergence plant response
Format in all cases: in vivo
Conditions in all cases: scale 0 to 100
[1] = system: fall panicum (Panicum dichotomiflorum)
Procedure, shortened: (§1)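 Seeds were sown in silt loam soil and sprayed preemergence; separately, plants at the 1- to 4-leaf stage (2 to 18 cm) received postemergence sprays. Test chemicals were in a non-phytotoxic solvent mixture with surfactant. After 14 to 21 days in a greenhouse, injury was visually rated 0 (no effect) to 100 (complete control) against untreated controls.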

corn (Zea mays) = system: corn (Zea mays)
Procedure, shortened: as §1

[2] = system: Brazilian crabgrass (Digitaria horizontalis)
Procedure, shortened: as §1

[3] = system: velvetleaf (Abutilon theophrasti)
Procedure, shortened: as §1

[4] = system: sandbur (southern sandbur, Cenchrus echinatus)
Procedure, shortened: as §1

[5] = system: goosegrass (Eleusine indica)
Procedure, shortened: as §1

[6] = system: arrowleaf sida (Sida rhombifolia)
Procedure, shortened: as §1

[7] = system: hairy beggarticks (Bidens pilosa)
Procedure, shortened: as §1

[8] = system: palmer pigweed (Amaranthus palmeri)
Procedure, shortened: as §1

[9] = system: nightshade (eastern black nightshade, Solanum ptycanthum)
Procedure, shortened: as §1

Fc1cccc(Oc2ncc(Cl)cn2)c1-c1cc(C(F)(F)F)on1 [Compound 168, 5-chloro-2-[2-[5-(trifluoromethyl)-3-isoxazolyl]-3-fluorophenoxy]pyrimidine]
pest or weed control at 16 g/ha ([1]; Panicum dichotomiflorum, pre-emergence, 16 g ai/ha Preemergence, read-out: Plant response rating, Panicum, Fall): 35% | pest or weed control at 31 g/ha ([1]; Panicum dichotomiflorum, pre-emergence, 31 g ai/ha Preemergence, read-out: Plant response rating, Panicum, Fall): 95% | pest or weed control at 125 g/ha ([1]; Panicum dichotomiflorum, pre-emergence, 125 g ai/ha Preemergence, read-out: Plant response rating, Panicum, Fall): 100% | pest or weed control at 62 g/ha ([1]; Panicum dichotomiflorum, pre-emergence, Preemergence, read-out: Plant response rating, Panicum, Fall): 100% | Corn plant response rating (crop injury, 0 = no effect, 100 = complete kill) at 16 g/ha (corn (Zea mays); Zea mays, pre-emergence, 16 g ai/ha Preemergence): 0% | Corn plant response rating (crop injury, 0 = no effect, 100 = complete kill) at 31 g/ha (corn (Zea mays); Zea mays, pre-emergence, 31 g ai/ha Preemergence): 0% | Corn plant response rating (crop injury, 0 = no effect, 100 = complete kill) at 62 g/ha (corn (Zea mays); Zea mays, pre-emergence, 62 g ai/ha Preemergence): 40% | Corn plant response rating (crop injury, 0 = no effect, 100 = complete kill) at 125 g/ha (corn (Zea mays); Zea mays, pre-emergence, 125 g ai/ha Preemergence): 35% | pest or weed control at 16 g/ha ([2]; Digitaria horizontalis, pre-emergence, 16 g ai/ha Preemergence, read-out: Plant response rating, Crabgrass, Brazil): 65% | pest or weed control at 31 g/ha ([2]; Digitaria horizontalis, pre-emergence, 31 g ai/ha Preemergence, read-out: Plant response rating, Crabgrass, Brazil): 100% | pest or weed control at 62 g/ha ([2]; Digitaria horizontalis, pre-emergence, 62 g ai/ha Preemergence, read-out: Plant response rating, Crabgrass, Brazil): 100% | pest or weed control at 125 g/ha ([2]; Digitaria horizontalis, pre-emergence, 125 g ai/ha Preemergence, read-out: Plant response rating, Crabgrass, Brazil): 100% | pest or weed control at 16 g/ha ([3]; Abutilon theophrasti, pre-emergence, 16 g ai/ha Preemergence, read-out: Plant response rating, Velvetleaf): 35% | pest or weed control at 31 g/ha ([3]; Abutilon theophrasti, pre-emergence, 31 g ai/ha Preemergence, read-out: Plant response rating, Velvetleaf): 75% | pest or weed control at 125 g/ha ([3]; Abutilon theophrasti, pre-emergence, 125 g ai/ha Preemergence, read-out: Plant response rating, Velvetleaf): 100% | pest or weed control at 62 g/ha ([3]; Abutilon theophrasti, pre-emergence, Preemergence, read-out: Plant response rating, Velvetleaf): 100% | pest or weed control at 16 g/ha ([4]; Cenchrus echinatus, pre-emergence, 16 g ai/ha Preemergence, read-out: Plant response rating, Sandbur): 10% | pest or weed control at 31 g/ha ([4]; Cenchrus echinatus, pre-emergence, 31 g ai/ha Preemergence, read-out: Plant response rating, Sandbur): 30% | pest or weed control at 125 g/ha ([4]; Cenchrus echinatus, pre-emergence, 125 g ai/ha Preemergence, read-out: Plant response rating, Sandbur): 90% | pest or weed control at 62 g/ha ([4]; Cenchrus echinatus, pre-emergence, Preemergence, read-out: Plant response rating, Sandbur): 65% | pest or weed control at 16 g/ha ([5]; Eleusine indica, pre-emergence, 16 g ai/ha Preemergence, read-out: Plant response rating, Goosegrass): 80% | pest or weed control at 31 g/ha ([5]; Eleusine indica, pre-emergence, 31 g ai/ha Preemergence, read-out: Plant response rating, Goosegrass): 95% | pest or weed control at 125 g/ha ([5]; Eleusine indica, pre-emergence, 125 g ai/ha Preemergence, read-out: Plant response rating, Goosegrass): 100% | pest or weed control at 62 g/ha ([5]; Eleusine indica, pre-emergence, Preemergence, read-out: Plant response rating, Goosegrass): 98% | pest or weed control at 16 g/ha ([6]; Sida rhombifolia, pre-emergence, 16 g ai/ha Preemergence, read-out: Plant response rating, Arrowleaf Sida): 95% | pest or weed control at 31 g/ha ([6]; Sida rhombifolia, pre-emergence, 31 g ai/ha Preemergence, read-out: Plant response rating, Arrowleaf Sida): 100% | pest or weed control at 62 g/ha ([6]; Sida rhombifolia, pre-emergence, 62 g ai/ha Preemergence, read-out: Plant response rating, Arrowleaf Sida): 100% | pest or weed control at 125 g/ha ([6]; Sida rhombifolia, pre-emergence, 125 g ai/ha Preemergence, read-out: Plant response rating, Arrowleaf Sida): 100% | pest or weed control at 16 g/ha ([7]; Bidens pilosa, pre-emergence, 16 g ai/ha Preemergence, read-out: Plant response rating, Beggarticks): 0% | pest or weed control at 31 g/ha ([7]; Bidens pilosa, pre-emergence, 31 g ai/ha Preemergence, read-out: Plant response rating, Beggarticks): 0% | pest or weed control at 62 g/ha ([7]; Bidens pilosa, pre-emergence, 62 g ai/ha Preemergence, read-out: Plant response rating, Beggarticks): 0% | pest or weed control at 125 g/ha ([7]; Bidens pilosa, pre-emergence, 125 g ai/ha Preemergence, read-out: Plant response rating, Beggarticks): 0% | pest or weed control at 16 g/ha ([8]; Amaranthus palmeri, pre-emergence, 16 g ai/ha Preemergence, read-out: Plant response rating, Pigweed, Palmer): 98% | pest or weed control at 31 g/ha ([8]; Amaranthus palmeri, pre-emergence, 31 g ai/ha Preemergence, read-out: Plant response rating, Pigweed, Palmer): 100% | pest or weed control at 125 g/ha ([8]; Amaranthus palmeri, pre-emergence, 125 g ai/ha Preemergence, read-out: Plant response rating, Pigweed, Palmer): 100% | pest or weed control at 62 g/ha ([8]; Amaranthus palmeri, pre-emergence, Preemergence, read-out: Plant response rating, Pigweed, Palmer): 100% | pest or weed control at 16 g/ha ([9]; Solanum, pre-emergence, 16 g ai/ha Preemergence, read-out: Plant response rating, Nightshade): 5% | pest or weed control at 31 g/ha ([9]; Solanum, pre-emergence, 31 g ai/ha Preemergence, read-out: Plant response rating, Nightshade): 98% | pest or weed control at 125 g/ha ([9]; Solanum, pre-emergence, 125 g ai/ha Preemergence, read-out: Plant response rating, Nightshade): 98% | pest or weed control at 62 g/ha ([9]; Solanum, pre-emergence, Preemergence, read-out: Plant response rating, Nightshade): 98%

FC(F)c1cc(-c2c(Cl)cccc2Oc2ncc(Cl)cn2)no1 [Compound 179]
Plant response rating, Panicum, Fall ([1]; 16 g ai/ha Postemergence): 15 | Plant response rating, Panicum, Fall ([1]; 16 g ai/ha Preemergence): 0 | Plant response rating, Panicum, Fall ([1]; 31 g ai/ha Postemergence): 10 | Plant response rating, Panicum, Fall ([1]; 31 g ai/ha Preemergence): 0 | Plant response rating, Panicum, Fall ([1]; 62 g ai/ha Postemergence): 15 | Plant response rating, Panicum, Fall ([1]; 125 g ai/ha Postemergence): 10 | Plant response rating, Panicum, Fall ([1]; 125 g ai/ha Preemergence): 75 | Plant response rating, Panicum, Fall ([1]; Preemergence): 50 | Plant response rating, Corn (corn (Zea mays); 16 g ai/ha Postemergence): 5 | Plant response rating, Corn (corn (Zea mays); 16 g ai/ha Preemergence): 0 | Plant response rating, Corn (corn (Zea mays); 31 g ai/ha Postemergence): 0 | Plant response rating, Corn (corn (Zea mays); 31 g ai/ha Preemergence): 0 | Plant response rating, Corn (corn (Zea mays); 62 g ai/ha Postemergence): 10 | Plant response rating, Corn (corn (Zea mays); 62 g ai/ha Preemergence): 0 | Plant response rating, Corn (corn (Zea mays); 125 g ai/ha Postemergence): 15 | Plant response rating, Corn (corn (Zea mays); 125 g ai/ha Preemergence): 40 | Plant response rating, Crabgrass, Brazil ([2]; 16 g ai/ha Postemergence): 10 | Plant response rating, Crabgrass, Brazil ([2]; 16 g ai/ha Preemergence): 0 | Plant response rating, Crabgrass, Brazil ([2]; 31 g ai/ha Postemergence): 20 | Plant response rating, Crabgrass, Brazil ([2]; 31 g ai/ha Preemergence): 0 | Plant response rating, Crabgrass, Brazil ([2]; 62 g ai/ha Postemergence): 20 | Plant response rating, Crabgrass, Brazil ([2]; 62 g ai/ha Preemergence): 15 | Plant response rating, Crabgrass, Brazil ([2]; 125 g ai/ha Postemergence): 30 | Plant response rating, Crabgrass, Brazil ([2]; 125 g ai/ha Preemergence): 25 | Plant response rating, Velvetleaf ([3]; 16 g ai/ha Preemergence): 15 | Plant response rating, Velvetleaf ([3]; 31 g ai/ha Preemergence): 65 | Plant response rating, Velvetleaf ([3]; 125 g ai/ha Preemergence): 100 | Plant response rating, Velvetleaf ([3]; Preemergence): 90 | Plant response rating, Sandbur ([4]; 16 g ai/ha Postemergence): 0 | Plant response rating, Sandbur ([4]; 16 g ai/ha Preemergence): 0 | Plant response rating, Sandbur ([4]; 31 g ai/ha Postemergence): 0 | Plant response rating, Sandbur ([4]; 31 g ai/ha Preemergence): 0 | Plant response rating, Sandbur ([4]; 62 g ai/ha Postemergence): 5 | Plant response rating, Sandbur ([4]; 125 g ai/ha Postemergence): 10 | Plant response rating, Sandbur ([4]; 125 g ai/ha Preemergence): 0 | Plant response rating, Sandbur ([4]; Preemergence): 0 | Plant response rating, Goosegrass ([5]; 16 g ai/ha Preemergence): 0 | Plant response rating, Goosegrass ([5]; 31 g ai/ha Preemergence): 0 | Plant response rating, Goosegrass ([5]; 125 g ai/ha Preemergence): 0 | Plant response rating, Goosegrass ([5]; Preemergence): 0 | Plant response rating, Arrowleaf Sida ([6]; 16 g ai/ha Postemergence): 70 | Plant response rating, Arrowleaf Sida ([6]; 16 g ai/ha Preemergence): 0 | Plant response rating, Arrowleaf Sida ([6]; 31 g ai/ha Postemergence): 80 | Plant response rating, Arrowleaf Sida ([6]; 31 g ai/ha Preemergence): 80 | Plant response rating, Arrowleaf Sida ([6]; 62 g ai/ha Postemergence): 85 | Plant response rating, Arrowleaf Sida ([6]; 62 g ai/ha Preemergence): 80 | Plant response rating, Arrowleaf Sida ([6]; 125 g ai/ha Postemergence): 100 | Plant response rating, Arrowleaf Sida ([6]; 125 g ai/ha Preemergence): 90 | Plant response rating, Beggarticks ([7]; 16 g ai/ha Postemergence): 20 | Plant response rating, Beggarticks ([7]; 16 g ai/ha Preemergence): 0 | Plant response rating, Beggarticks ([7]; 31 g ai/ha Postemergence): 50 | Plant response rating, Beggarticks ([7]; 31 g ai/ha Preemergence): 0 | Plant response rating, Beggarticks ([7]; 62 g ai/ha Postemergence): 40 | Plant response rating, Beggarticks ([7]; 62 g ai/ha Preemergence): 0 | Plant response rating, Beggarticks ([7]; 125 g ai/ha Postemergence): 50 | Plant response rating, Beggarticks ([7]; 125 g ai/ha Preemergence): 0 | Plant response rating, Pigweed, Palmer ([8]; 16 g ai/ha Postemergence): 70 | Plant response rating, Pigweed, Palmer ([8]; 16 g ai/ha Preemergence): 0 | Plant response rating, Pigweed, Palmer ([8]; 31 g ai/ha Postemergence): 90 | Plant response rating, Pigweed, Palmer ([8]; 31 g ai/ha Preemergence): 0 | Plant response rating, Pigweed, Palmer ([8]; 62 g ai/ha Postemergence): 85 | Plant response rating, Pigweed, Palmer ([8]; 125 g ai/ha Postemergence): 85 | Plant response rating, Pigweed, Palmer ([8]; 125 g ai/ha Preemergence): 65 | Plant response rating, Pigweed, Palmer ([8]; Preemergence): 35 | Plant response rating, Nightshade ([9]; 31 g ai/ha Preemergence): 65 | Plant response rating, Nightshade ([9]; 125 g ai/ha Preemergence): 100 | Plant response rating, Nightshade ([9]; Preemergence): 100
